≈ marks a conversion by molar mass, not a printed value.
Columns and labels:
[1] = tested on: Staphylococcus aureus; test: Antibacterial activity against Staphylococcus aureus Smith by standard serial agar dilution method; type: functional
[2] = tested on: Streptococcus pneumoniae; test: Antibacterial activity against penicillin-resistant Streptococcus pneumoniae SR-16675 by standard serial agar dilution method; type: functional
[3] = tested on: Escherichia coli; test: Antibacterial activity against Escherichia coli SR-21003 by standard serial agar dilution method; type: functional
[4] = tested on: Escherichia coli; test: Antibacterial activity against Toho 2 producing Escherichia coli by standard serial agar dilution method; type: functional
[5] = tested on: Pseudomonas aeruginosa; test: Antibacterial activity against Pseudomonas aeruginosa SR24 by standard serial agar dilution method; type: functional
[6] = tested on: Pseudomonas aeruginosa; test: Antibacterial activity against AmpC hyperproducing Pseudomonas aeruginosa SR24-12 by standard serial agar dilution method; type: functional
[7] = tested on: Pseudomonas aeruginosa; test: Antibacterial activity against Pseudomonas aeruginosa SR-5393 by standard serial agar dilution method; type: functional
[8] = tested on: Pseudomonas aeruginosa; test: Antibacterial activity against imipenem-resistant Pseudomonas aeruginosa SR-6554 by standard serial agar dilution method; type: functional
[9] = tested on: Haemophilus influenzae; test: Antibacterial activity against Haemophilus influenzae ATCC 49766 by standard serial agar dilution method; type: functional
[10] = tested on: Haemophilus influenzae; test: Antibacterial activity against beta-lactamase negative ampicillin-resistant Haemophilus influenzae SR-11435 by standard serial agar dilution method; type: functional
[11] = tested on: Moraxella catarrhalis; test: Antibacterial activity against Moraxella catarrhalis ATCC 43617 by standard serial agar dilution method; type: functional
[12] = Stability in presence of AmpC beta-lactamase; type: ADME
[13] = tested on: Enterobacter cloacae; test: Antibacterial activity against Enterobacter cloacae ATCC 13047 by standard serial agar dilution method; type: functional
[14] = tested on: Enterobacter cloacae; test: Antibacterial activity against AmpC producing Enterobacter cloacae SR-4321 by standard serial agar dilution method; type: functional
[15] = tested on: Pseudomonas aeruginosa; test: Antibacterial activity against Pseudomonas aeruginosa SR-24722 isolate by standard serial agar dilution method; type: functional
[16] = tested on: Pseudomonas aeruginosa; test: Antibacterial activity against Pseudomonas aeruginosa SR-24736 isolate by standard serial agar dilution method; type: functional
[17] = tested on: Pseudomonas aeruginosa; test: Antibacterial activity against Pseudomonas aeruginosa SR-24765 isolate by standard serial agar dilution method; type: functional
[18] = tested on: Pseudomonas aeruginosa; test: Antibacterial activity against Pseudomonas aeruginosa SR-24770 isolate by standard serial agar dilution method; type: functional
[19] = tested on: Pseudomonas aeruginosa; test: Antibacterial activity against Pseudomonas aeruginosa SR-24797 isolate by standard serial agar dilution method; type: functional
[20] = tested on: Pseudomonas aeruginosa; test: Antibacterial activity against Pseudomonas aeruginosa SR-24816 isolate by standard serial agar dilution method; type: functional
[21] = tested on: Pseudomonas aeruginosa; test: Antibacterial activity in CAZ-susceptible Pseudomonas aeruginosa SR24 infected ICR mouse after 7 days; type: functional; settings: 168 h
[22] = tested on: Pseudomonas aeruginosa; test: Antibacterial activity in CAZ-resistant Pseudomonas aeruginosa SR24-12 infected ICR mouse after 7 days; type: functional; settings: 168 h

SMILES	MIC [1]	MIC [2]	MIC [3]	MIC [4]	MIC [5]	MIC [6]	MIC [7]	MIC [8]	MIC [9]	MIC [10]	MIC [11]	Stability [12]	MIC [13]	MIC [14]	MIC [15]	MIC [16]	MIC [17]	MIC [18]	MIC [19]	MIC [20]	also measured
CO/N=C(\C(=O)N[C@@H]1C(=O)N2C(C(=O)[O-])=C(C[N+]3(C)CCCC3)CS[C@H]12)c1csc(N)n1	2 µg/mL (≈ 4.16 µM)	2 µg/mL (≈ 4.16 µM)	0.063 µg/mL (≈ 0.131 µM)	4 µg/mL (≈ 8.32 µM)	0.5 µg/mL (≈ 1.04 µM)	32 µg/mL (≈ 66.6 µM)	4 µg/mL (≈ 8.32 µM)	64 µg/mL (≈ 133 µM)	0.032 µg/mL (≈ 0.0666 µM)	0.5 µg/mL (≈ 1.04 µM)	0.5 µg/mL (≈ 1.04 µM)	12.9%									
CC(C)(O/N=C(\C(=O)N[C@@H]1C(=O)N2C(C(=O)[O-])=C(C[n+]3ccccc3)CS[C@H]12)c1csc(N)n1)C(=O)O [CEFTAZIDIME]	8 µg/mL (≈ 14.6 µM)	8 µg/mL (≈ 14.6 µM)	0.25 µg/mL (≈ 0.457 µM)	1 µg/mL (≈ 1.83 µM)	0.5 µg/mL (≈ 0.915 µM)	64 µg/mL (≈ 117 µM)	2 µg/mL (≈ 3.66 µM)	32 µg/mL (≈ 58.5 µM)	0.063 µg/mL (≈ 0.115 µM)	0.125 µg/mL (≈ 0.229 µM)	0.063 µg/mL (≈ 0.115 µM)	18%	8 µg/mL (≈ 14.6 µM)	64 µg/mL (≈ 117 µM)	64 µg/mL (≈ 117 µM)	128 µg/mL (≈ 234 µM)	128 µg/mL (≈ 234 µM)	64 µg/mL (≈ 117 µM)	64 µg/mL (≈ 117 µM)	64 µg/mL (≈ 117 µM)	ED50 [21]: 2.83 mg/kg; ED50 [22]: > 128 mg/kg
CNCCCn1c(N)nc2c1ccc[n+]2CC1=C(C(=O)[O-])N2C(=O)[C@@H](NC(=O)/C(=N\O[C@@H](C)C(=O)O)c3nc(N)sc3Cl)[C@H]2SC1	2 µg/mL (≈ 2.89 µM)	2 µg/mL (≈ 2.89 µM)	0.25 µg/mL (≈ 0.361 µM)	2 µg/mL (≈ 2.89 µM)	0.5 µg/mL (≈ 0.721 µM)	4 µg/mL (≈ 5.77 µM)	2 µg/mL (≈ 2.89 µM)	8 µg/mL (≈ 11.5 µM)	0.032 µg/mL (≈ 0.0462 µM)	0.063 µg/mL (≈ 0.0909 µM)	0.016 µg/mL (≈ 0.0231 µM)	90.2%	0.5 µg/mL (≈ 0.721 µM)	2 µg/mL (≈ 2.89 µM)	4 µg/mL (≈ 5.77 µM)	2 µg/mL (≈ 2.89 µM)	4 µg/mL (≈ 5.77 µM)	4 µg/mL (≈ 5.77 µM)	4 µg/mL (≈ 5.77 µM)	2 µg/mL (≈ 2.89 µM)	ED50 [21]: 1.33 mg/kg; ED50 [22]: 4.69 mg/kg
CNCCNc1cc[n+](CC2=C(C(=O)[O-])N3C(=O)[C@@H](NC(=O)/C(=N\O[C@@H](C)C(=O)O)c4nc(N)sc4Cl)[C@H]3SC2)cc1	4 µg/mL (≈ 6.26 µM)	4 µg/mL (≈ 6.26 µM)	0.5 µg/mL (≈ 0.782 µM)	4 µg/mL (≈ 6.26 µM)	0.5 µg/mL (≈ 0.782 µM)	4 µg/mL (≈ 6.26 µM)	2 µg/mL (≈ 3.13 µM)	16 µg/mL (≈ 25 µM)	0.125 µg/mL (≈ 0.196 µM)	0.25 µg/mL (≈ 0.391 µM)	0.032 µg/mL (≈ 0.0501 µM)	80.3%	0.5 µg/mL (≈ 0.782 µM)	4 µg/mL (≈ 6.26 µM)							
C[C@H](O/N=C(\C(=O)N[C@@H]1C(=O)N2C(C(=O)[O-])=C(C[n+]3cccc4c3nc(N)n4CCNCCO)CS[C@H]12)c1nc(N)sc1Cl)C(=O)O	4 µg/mL (≈ 5.64 µM)	2 µg/mL (≈ 2.82 µM)	0.5 µg/mL (≈ 0.705 µM)	4 µg/mL (≈ 5.64 µM)	1 µg/mL (≈ 1.41 µM)	4 µg/mL (≈ 5.64 µM)	4 µg/mL (≈ 5.64 µM)	16 µg/mL (≈ 22.6 µM)	0.032 µg/mL (≈ 0.0451 µM)	0.063 µg/mL (≈ 0.0888 µM)	0.016 µg/mL (≈ 0.0226 µM)		0.5 µg/mL (≈ 0.705 µM)	2 µg/mL (≈ 2.82 µM)							
C[C@H](N)CCn1c(N)nc2c1ccc[n+]2CC1=C(C(=O)[O-])N2C(=O)[C@@H](NC(=O)/C(=N\O[C@@H](C)C(=O)O)c3nc(N)sc3Cl)[C@H]2SC1	2 µg/mL (≈ 2.89 µM)	2 µg/mL (≈ 2.89 µM)	0.25 µg/mL (≈ 0.361 µM)	2 µg/mL (≈ 2.89 µM)	0.5 µg/mL (≈ 0.721 µM)	4 µg/mL (≈ 5.77 µM)	2 µg/mL (≈ 2.89 µM)	8 µg/mL (≈ 11.5 µM)	0.016 µg/mL (≈ 0.0231 µM)	0.063 µg/mL (≈ 0.0909 µM)	0.008 µg/mL (≈ 0.0115 µM)		0.5 µg/mL (≈ 0.721 µM)	2 µg/mL (≈ 2.89 µM)							
CNCCCn1ccc2c1ccc[n+]2CC1=C(C(=O)[O-])N2C(=O)[C@@H](NC(=O)/C(=N\O[C@@H](C)C(=O)O)c3nc(N)sc3Cl)[C@H]2SC1	2 µg/mL (≈ 2.95 µM)	4 µg/mL (≈ 5.91 µM)	0.5 µg/mL (≈ 0.738 µM)	2 µg/mL (≈ 2.95 µM)	1 µg/mL (≈ 1.48 µM)	4 µg/mL (≈ 5.91 µM)	2 µg/mL (≈ 2.95 µM)	8 µg/mL (≈ 11.8 µM)	0.032 µg/mL (≈ 0.0473 µM)	0.063 µg/mL (≈ 0.093 µM)	0.016 µg/mL (≈ 0.0236 µM)	78.4%	0.5 µg/mL (≈ 0.738 µM)	2 µg/mL (≈ 2.95 µM)	8 µg/mL (≈ 11.8 µM)	8 µg/mL (≈ 11.8 µM)	8 µg/mL (≈ 11.8 µM)	8 µg/mL (≈ 11.8 µM)	8 µg/mL (≈ 11.8 µM)	4 µg/mL (≈ 5.91 µM)	

From ChEMBL document CHEMBL1144019 (Bioorg Med Chem, 2008)
